According to US11273172B2, “Synergistic combination of oligonucleotides and chemotherapeutic for treating cancer” (THE BOARD OF TRUSTEES OF THE UNIVERSITY OF ILLINOIS, priority 2017, dated 2022):
“And” between values parts separate entries of the source, which are not always exact repeats. Identical values can stand only once.

B1: TRAIL: cytotoxic protein which induces apoptosis in tumor cells, but not in normal cells (protein, UniProt P50591 1-281, looked up)
Tumor necrosis factor ligand …: MAMMEVQGGPSLGQTCVLIVIFTVLLQSLCVAVTYVYFTNELKQMQDKYSKSGIACFLKEDDSYWDPNDEESMNSPCWQVKWQLRQLVRKMILRTSEETISTVQEKQQNISPLVRERGPQRVAAHITGTRGRSNTLSSPNSKNEKALGRKINSWESSRSGHSFLSNLHLRNGELVIHEKGFYYIYSQTYFRFQEEIKENTKNDKQMVQYIYKYTSYPDPILLMKSARNSCWSKDAEYGLYSIYQGGIFELKENDRIFVSVTNEHLIDMDHEASFFGAFLVG

What was measured:
Assay in all cases: MTT cell death assay, chemotherapeutic with and without MADD siRNA knockdown
Format in all cases: cell-based
[1] = system: H522 lung cancer cells; details: siRNA 10 nM
Protocol: (§1) Cells are cultured and maintained at 37° C. in a humidified atmosphere containing 5% CO2 as described above. On Day 0, Cells are seeded in […] tissue culture dishes (Corning; Cat Number: 353003) to attain 60-70% confluence. In parallel, cells are also seeded in one 96-well plate (Corning; Cat number: 353072) for analysis of survival before reseeding. After 12-18 hours (Day 1), cells are transfected with Scramble or MADD siRNA at 10 nM concentration. The sequences of siRNAs (double-stranded) used are:
(§2) On Day 4, when cells are properly adhered and retained their shape in 96-well plates, drugs are added. All drugs are diluted in complete media on the same day prior to the addition to the cells. In untreated cells, media is replaced with complete media. Two hundred μl volume of media (with or without drugs) is used for the drug treatment assay. Plates are incubated 24 hours, 48 hours and 72 hours at 37° C. in humidified CO2 incubator.
(§3) An MTT assay is performed to determine relative survival after drug treatment as described above. MTT (3-[4,5-Dimethylthiazol-2-yl]-2,5-diphenyltetrazolium bromide; Thiazolyl blue) is purchased from Sigma Aldrich (Cat number: M5655). MTT is dissolved in sterile DPBS at the concentration of 5 mg/ml and filtered through […] syringe filter (Corning; Cat number: 431220). Ten μl of MTT solution is added per well of 96-well plate. Plates are incubated for 2 hours at 37° C. in the humidified CO2 incubator. After 2 hours, media is aspirated using vacuum inside the biosafety hood. Purple colored crystals formed in viable cells are dissolved by adding 100 μl of Dimethyl sulfoxide (Thermo Fisher Scientific; Cat number D128-500) Plates are kept on shaker for 10 minutes for compete dissolution of crystals and absorbance is recorded at 595 nm using Bio-Rad iMark microplate reader. Data is analyzed in MICROSOFT EXCEL® software. Relative survival is calculated with respect to absorbance of control (untreated cells) to determine the effect of transfection as well as combination treatment.
(§4) Each data set takes into account any spontaneous cell death which is observed upon transfection with Scramble siRNA; the amount of spontaneous cell death from Scramble siRNA transfection (baseline) is subtracted from the amount of cell death observed in each siRNA transfection reaction to yield a Net Percent (Net %) cell death after accounting for Scrambled siRNA-induced cell death.
as §1, with “(double stranded)” for “(double-stranded)”
as §3, with “D128-500).” for “D128-500)”, “Relative survival is calculated with respect to absorbance of control (untreated cells) to determine the effect of transfection as well as combination treatment.” left out

[2] = system: OVCAR3 ovarian cancer cells; details: siRNA 10 nM
Protocol: as §1, §2, §3, §4
as §1, with “(double stranded)” for “(double-stranded)”
as §3, with “D128-500).” for “D128-500)”, “Relative survival is calculated with respect to absorbance of control (untreated cells) to determine the effect of transfection as well as combination treatment.” left out

[3] = system: CFPAC-1 pancreatic cancer cells; details: siRNA 10 nM, 72 hours post TRAIL treatment
Protocol: as §1, with “(double stranded)” for “(double-stranded)”
as §2, with “24 h,” for “24 hours,”, “48 h” for “48 hours”
as §3, §4

[4] = system: HCT116 colon cancer cells; details: TRAIL 50 ng/ml, siRNA 10 nM, 48 hours post TRAIL treatment
Protocol: as §1, with “(double stranded)” for “(double-stranded)”
as §2, with “24 h,” for “24 hours,”, “48 h” for “48 hours”
as §3, §4

[5] = system: SKOV3 ovarian cancer cells; details: TRAIL 50 ng/ml, siRNA 10 nM, 48 hours post TRAIL treatment
Protocol: as §1, with “(double stranded)” for “(double-stranded)”
as §2, with “24 h,” for “24 hours,”, “48 h” for “48 hours”
as §3, §4

[6] = Sorafinib 1.56 μM, 48 hours post Sorafinib treatment
[7] = Sorafinib 5 μM, 48 hours post Sorafinib treatment
[8] = Gemcitabine 8.2 nM, 48 hours post Gemcitabine treatment
[9] = TRAIL 100 ng/ml, 48 hours post TRAIL treatment
[10] = Gemcitabine 0.0125 μM, 72 hours post Gemcitabine treatment
[11] = Gemcitabine 0.1 μM, 48 hours post Gemcitabine treatment

Molecule | Net % cell death after accounting for Scrambled siRNA [1, 6] | Observed % Cell death [1, 6] [%] | Net % cell death after accounting for Scrambled siRNA [2, 7] | Observed % Cell death [2, 7] [%] | Observed % Cell death [1, 8] [%] | Observed % Cell death [1, 9] [%] | Observed % Cell death [2, 10] [%] | Observed % Cell death [2, 11] [%] | Net % cell death after accounting for Scrambled siRNA ([3]; TRAIL 6.25 ng/ml) | Observed % Cell death ([3]; TRAIL 6.25 ng/ml) [%] | Net % cell death after accounting for Scrambled siRNA ([3]; TRAIL 12.5 ng/ml) | Observed % Cell death ([3]; TRAIL 12.5 ng/ml) [%] | Observed % Cell death [4] [%] | Net % cell death after accounting for Scrambled siRNA [5] | Observed % Cell death [5] [%] | Net % cell death after accounting for Scrambled siRNA [1, 8] | Net % cell death after accounting for Scrambled siRNA [1, 9] | Net % cell death after accounting for Scrambled siRNA [2, 10] | Net % cell death after accounting for Scrambled siRNA [2, 11] | Net % cell death after accounting for Scrambled siRNA [4]
CNC(=O)c1cc(Oc2ccc(NC(=O)Nc3ccc(Cl)c(C(F)(F)F)c3)cc2)ccn1 [Sorafinib] | 0% | 0 | 17% | 17 |  |  |  |  |  |  |  |  |  |  |  |  |  |  |  | 
MADD siRNA: siRNA targeting exon 13L of the MADD splice variant of the IG20 gene; SEQ ID NO: 4, 5′-GAUUGUCAUAGAUUCGCCGTT-3′ (chemistry not given here) |  | 37 |  | 19 | 37 | 37 | 23 | 19 | 53% and 53 − 0 = 53% | 53 | 53% and 53 − 0 = 53% | 53 | 43 | 29% and 38 − 9 = 29% | 38 |  |  |  |  | 
Scrambled siRNA: non-specific Scramble siRNA, negative control; SEQ ID NO: 5, 5′-UUGCUAAGCGUCGGUCAAUTT-3′ (chemistry not given here) | 30 − 30 = 0% | 30 | 17 − 17 = 0% | 17 | 30 | 30 | 26 | 17 | 17 − 17 = 0% | 0 | 0 − 0 = 0% | 0 | 27 | 9 − 9 = 0% | 9 | 30 − 30 = 0% | 30 − 30 = 0% | 26 − 26 = 0% | 17 − 17 = 0% | 27 − 27 = 0%
B1 |  |  |  |  |  | 0 |  |  | 30% | 30 | 8% | 8 | 27 | 13% | 13 |  | 0% |  |  | 27%
